# Source: PubChem BioAssay (NCI)
#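 Values below derive from 48-hour exposures of cells grown in 96-well plates, with endpoints linearly interpolated between the two concentrations bracketing the appropriate inhibition level. The concentration for full growth arrest is given as TGI.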
# Tested on: HCT-116 colon
# Assay: growth of human tumour cells (NCI), 48 h
row,Compound,TGI
1,COc1ccc(N2C(=O)C3c4[nH]c5ccccc5c4C4CCC(c5ccccc5)CC4C3C2=O)cc1 (stereo not drawn),> 100 µM
2,CC(C)=CC(=O)c1[nH]c2ccccc2c1CC(=O)NCCc1cn(C(c2ccccc2)(c2ccccc2)c2ccccc2)cn1,10.6 µM
3,CCCCC(=O)OC[n+]1cccc(-c2c(COC(=O)NC(C)C)c(COC(=O)NC(C)C)c3n2CCC3)c1,> 100 µM
4,CCOC(=O)NC(Nc1ccc(OC(F)(F)F)cc1)(C(F)(F)F)C(F)(F)F,> 100 µM

# Tested on: SK-MEL-5 melanoma
# Assay: growth of human tumour cells (NCI), 48 h
row,Compound,TGI
1,COc1ccc(N2C(=O)C3c4[nH]c5ccccc5c4C4CCC(c5ccccc5)CC4C3C2=O)cc1 (stereo not drawn),> 87.8 µM
2,CC(C)=CC(=O)c1[nH]c2ccccc2c1CC(=O)NCCc1cn(C(c2ccccc2)(c2ccccc2)c2ccccc2)cn1,3.84 µM
3,CCCCC(=O)OC[n+]1cccc(-c2c(COC(=O)NC(C)C)c(COC(=O)NC(C)C)c3n2CCC3)c1,> 100 µM
4,CCOC(=O)NC(Nc1ccc(OC(F)(F)F)cc1)(C(F)(F)F)C(F)(F)F,> 100 µM

# Tested on: HCT-15 colon
# Assay: growth of human tumour cells (NCI), 48 h
row,Compound,TGI
1,COc1ccc(N2C(=O)C3c4[nH]c5ccccc5c4C4CCC(c5ccccc5)CC4C3C2=O)cc1 (stereo not drawn),> 100 µM
2,CC(C)=CC(=O)c1[nH]c2ccccc2c1CC(=O)NCCc1cn(C(c2ccccc2)(c2ccccc2)c2ccccc2)cn1,> 40.4 µM
3,CCCCC(=O)OC[n+]1cccc(-c2c(COC(=O)NC(C)C)c(COC(=O)NC(C)C)c3n2CCC3)c1,> 100 µM
4,CCOC(=O)NC(Nc1ccc(OC(F)(F)F)cc1)(C(F)(F)F)C(F)(F)F,> 100 µM

# Tested on: SNB-75 CNS
# Assay: growth of human tumour cells (NCI), 48 h
row,Compound,TGI
1,COc1ccc(N2C(=O)C3c4[nH]c5ccccc5c4C4CCC(c5ccccc5)CC4C3C2=O)cc1 (stereo not drawn),19.1 µM
2,CC(C)=CC(=O)c1[nH]c2ccccc2c1CC(=O)NCCc1cn(C(c2ccccc2)(c2ccccc2)c2ccccc2)cn1,> 100 µM
3,CCCCC(=O)OC[n+]1cccc(-c2c(COC(=O)NC(C)C)c(COC(=O)NC(C)C)c3n2CCC3)c1,> 100 µM
4,CCOC(=O)NC(Nc1ccc(OC(F)(F)F)cc1)(C(F)(F)F)C(F)(F)F,> 100 µM

# Tested on: OVCAR-4 ovarian
# Assay: growth of human tumour cells (NCI), 48 h
row,Compound,TGI
1,COc1ccc(N2C(=O)C3c4[nH]c5ccccc5c4C4CCC(c5ccccc5)CC4C3C2=O)cc1 (stereo not drawn),> 49.5 µM
2,CC(C)=CC(=O)c1[nH]c2ccccc2c1CC(=O)NCCc1cn(C(c2ccccc2)(c2ccccc2)c2ccccc2)cn1,> 58.7 µM
3,CCCCC(=O)OC[n+]1cccc(-c2c(COC(=O)NC(C)C)c(COC(=O)NC(C)C)c3n2CCC3)c1,> 92.6 µM

# Tested on: SNB-19 CNS
# Assay: growth of human tumour cells (NCI), 48 h
row,Compound,TGI
1,COc1ccc(N2C(=O)C3c4[nH]c5ccccc5c4C4CCC(c5ccccc5)CC4C3C2=O)cc1 (stereo not drawn),43.2 µM
2,CC(C)=CC(=O)c1[nH]c2ccccc2c1CC(=O)NCCc1cn(C(c2ccccc2)(c2ccccc2)c2ccccc2)cn1,> 30.4 µM
3,CCCCC(=O)OC[n+]1cccc(-c2c(COC(=O)NC(C)C)c(COC(=O)NC(C)C)c3n2CCC3)c1,> 100 µM
4,CCOC(=O)NC(Nc1ccc(OC(F)(F)F)cc1)(C(F)(F)F)C(F)(F)F,> 100 µM

# Tested on: CAKI-1 renal
# Assay: growth of human tumour cells (NCI), 48 h
row,Compound,TGI
1,COc1ccc(N2C(=O)C3c4[nH]c5ccccc5c4C4CCC(c5ccccc5)CC4C3C2=O)cc1 (stereo not drawn),36.1 µM
2,CC(C)=CC(=O)c1[nH]c2ccccc2c1CC(=O)NCCc1cn(C(c2ccccc2)(c2ccccc2)c2ccccc2)cn1,> 100 µM
3,CCCCC(=O)OC[n+]1cccc(-c2c(COC(=O)NC(C)C)c(COC(=O)NC(C)C)c3n2CCC3)c1,56 µM
4,CCOC(=O)NC(Nc1ccc(OC(F)(F)F)cc1)(C(F)(F)F)C(F)(F)F,> 100 µM

# Tested on: SR leukemia
# Assay: growth of human tumour cells (NCI), 48 h
row,Compound,TGI
1,COc1ccc(N2C(=O)C3c4[nH]c5ccccc5c4C4CCC(c5ccccc5)CC4C3C2=O)cc1 (stereo not drawn),7.15 µM
2,CC(C)=CC(=O)c1[nH]c2ccccc2c1CC(=O)NCCc1cn(C(c2ccccc2)(c2ccccc2)c2ccccc2)cn1,4.88 µM
3,CCCCC(=O)OC[n+]1cccc(-c2c(COC(=O)NC(C)C)c(COC(=O)NC(C)C)c3n2CCC3)c1,52.3 µM
4,CCOC(=O)NC(Nc1ccc(OC(F)(F)F)cc1)(C(F)(F)F)C(F)(F)F,> 100 µM

# Tested on: SF-268 CNS
# Assay: growth of human tumour cells (NCI), 48 h
row,Compound,TGI
1,COc1ccc(N2C(=O)C3c4[nH]c5ccccc5c4C4CCC(c5ccccc5)CC4C3C2=O)cc1 (stereo not drawn),43.8 µM
2,CC(C)=CC(=O)c1[nH]c2ccccc2c1CC(=O)NCCc1cn(C(c2ccccc2)(c2ccccc2)c2ccccc2)cn1,> 53.3 µM
3,CCCCC(=O)OC[n+]1cccc(-c2c(COC(=O)NC(C)C)c(COC(=O)NC(C)C)c3n2CCC3)c1,> 81.5 µM
4,CCOC(=O)NC(Nc1ccc(OC(F)(F)F)cc1)(C(F)(F)F)C(F)(F)F,> 100 µM

# Tested on: MALME-3M melanoma
# Assay: growth of human tumour cells (NCI), 48 h
row,Compound,TGI
1,COc1ccc(N2C(=O)C3c4[nH]c5ccccc5c4C4CCC(c5ccccc5)CC4C3C2=O)cc1 (stereo not drawn),18.3 µM
2,CC(C)=CC(=O)c1[nH]c2ccccc2c1CC(=O)NCCc1cn(C(c2ccccc2)(c2ccccc2)c2ccccc2)cn1,12.5 µM
3,CCCCC(=O)OC[n+]1cccc(-c2c(COC(=O)NC(C)C)c(COC(=O)NC(C)C)c3n2CCC3)c1,> 100 µM
4,CCOC(=O)NC(Nc1ccc(OC(F)(F)F)cc1)(C(F)(F)F)C(F)(F)F,> 100 µM

# Tested on: MDA-MB-435
# Assay: growth of human tumour cells (NCI), 48 h
row,Compound,TGI
1,COc1ccc(N2C(=O)C3c4[nH]c5ccccc5c4C4CCC(c5ccccc5)CC4C3C2=O)cc1 (stereo not drawn),> 100 µM
2,CC(C)=CC(=O)c1[nH]c2ccccc2c1CC(=O)NCCc1cn(C(c2ccccc2)(c2ccccc2)c2ccccc2)cn1,4.42 µM
3,CCCCC(=O)OC[n+]1cccc(-c2c(COC(=O)NC(C)C)c(COC(=O)NC(C)C)c3n2CCC3)c1,> 100 µM
4,CCOC(=O)NC(Nc1ccc(OC(F)(F)F)cc1)(C(F)(F)F)C(F)(F)F,> 100 µM

# Tested on: HT29 colon
# Assay: growth of human tumour cells (NCI), 48 h
row,Compound,TGI
1,COc1ccc(N2C(=O)C3c4[nH]c5ccccc5c4C4CCC(c5ccccc5)CC4C3C2=O)cc1 (stereo not drawn),> 100 µM
2,CC(C)=CC(=O)c1[nH]c2ccccc2c1CC(=O)NCCc1cn(C(c2ccccc2)(c2ccccc2)c2ccccc2)cn1,> 42.7 µM
3,CCCCC(=O)OC[n+]1cccc(-c2c(COC(=O)NC(C)C)c(COC(=O)NC(C)C)c3n2CCC3)c1,> 100 µM
4,CCOC(=O)NC(Nc1ccc(OC(F)(F)F)cc1)(C(F)(F)F)C(F)(F)F,> 100 µM

# Tested on: HS 578T breast
# Assay: growth of human tumour cells (NCI), 48 h
row,Compound,TGI
1,COc1ccc(N2C(=O)C3c4[nH]c5ccccc5c4C4CCC(c5ccccc5)CC4C3C2=O)cc1 (stereo not drawn),21.5 µM
2,CC(C)=CC(=O)c1[nH]c2ccccc2c1CC(=O)NCCc1cn(C(c2ccccc2)(c2ccccc2)c2ccccc2)cn1,> 56.5 µM
3,CCCCC(=O)OC[n+]1cccc(-c2c(COC(=O)NC(C)C)c(COC(=O)NC(C)C)c3n2CCC3)c1,> 100 µM
4,CCOC(=O)NC(Nc1ccc(OC(F)(F)F)cc1)(C(F)(F)F)C(F)(F)F,> 100 µM

# Tested on: SW-620 colon
# Assay: growth of human tumour cells (NCI), 48 h
row,Compound,TGI
1,COc1ccc(N2C(=O)C3c4[nH]c5ccccc5c4C4CCC(c5ccccc5)CC4C3C2=O)cc1 (stereo not drawn),> 100 µM
2,CC(C)=CC(=O)c1[nH]c2ccccc2c1CC(=O)NCCc1cn(C(c2ccccc2)(c2ccccc2)c2ccccc2)cn1,> 100 µM
3,CCCCC(=O)OC[n+]1cccc(-c2c(COC(=O)NC(C)C)c(COC(=O)NC(C)C)c3n2CCC3)c1,> 100 µM
4,CCOC(=O)NC(Nc1ccc(OC(F)(F)F)cc1)(C(F)(F)F)C(F)(F)F,> 100 µM

# Tested on: A498 renal
# Assay: growth of human tumour cells (NCI), 48 h
row,Compound,TGI
1,COc1ccc(N2C(=O)C3c4[nH]c5ccccc5c4C4CCC(c5ccccc5)CC4C3C2=O)cc1 (stereo not drawn),50.6 µM
2,CC(C)=CC(=O)c1[nH]c2ccccc2c1CC(=O)NCCc1cn(C(c2ccccc2)(c2ccccc2)c2ccccc2)cn1,> 50.5 µM
3,CCCCC(=O)OC[n+]1cccc(-c2c(COC(=O)NC(C)C)c(COC(=O)NC(C)C)c3n2CCC3)c1,49.2 µM
